Some test systems named below: EKVX NSCLC; MDA-MB-231 breast; 786-0 renal; UO-31 renal; SK-OV-3 ovarian; SK-MEL-28 melanoma; A498 renal; OVCAR-5 ovarian; OVCAR-4 ovarian; HCT-15 colon.
Common to all, as to assay: NCI tumour cell line growth inhibition, 48 h

Several values for one entry are separate records, joined by “and”; a condition that tells them apart may be missing. Identical values can stand only once.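 48-hour exposure; five concentrations; linearly interpolated endpoints. Abbreviation: GI50, concentration required for 50% inhibition of growth. At the TGI there is no net growth.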

For 8 molecules, GI50 and TGI results are on record in PubChem BioAssay (NCI).

Turning to `CC1=NN(C(=O)c2nn(-c3ccc(Cl)cc3)cc2O)C(=O)C1`, the GI50 with EKVX NSCLC is 1.93 µM; with MDA-MB-231 breast it was 2.75 µM; with 786-0 renal it was 5.33 µM; in the assay with UO-31 renal it was 2.87 µM; in the assay with SK-OV-3 ovarian, 1.79 µM; in the assay on SK-MEL-28 melanoma, 9.13 µM. Besides, the GI50 in the assay on A498 renal was 2.92 µM; with OVCAR-4 ovarian, 3 µM; in the assay with HCT-15 colon, 0.845 µM. The TGI in the assay on EKVX NSCLC was over 100 µM; with MDA-MB-231 breast, over 100 µM; in the assay on 786-0 renal, over 60.4 µM; with UO-31 renal, over 100 µM; with SK-OV-3 ovarian it was over 100 µM; in the assay with SK-MEL-28 melanoma, over 100 µM. In addition, the TGI in the assay with A498 renal was over 82 µM; with OVCAR-5 ovarian it was over 78.9 µM; in the assay with OVCAR-4 ovarian it was over 100 µM; in the assay on HCT-15 colon, over 100 µM.
Turning to `c1ccc(/C(=N\Nc2ccc3ccccc3n2)c2ccccn2)cc1`, the GI50 was 0.281 µM in the assay with EKVX NSCLC; 0.839 µM with MDA-MB-231 breast; 0.509 µM in the assay with 786-0 renal; 0.361 µM in the assay with UO-31 renal; 0.612 µM in the assay on SK-OV-3 ovarian; 2.66 µM in the assay on SK-MEL-28 melanoma. Besides, the GI50 was 2.92 µM in the assay with A498 renal, 0.81 µM with OVCAR-5 ovarian, 0.418 µM in the assay on OVCAR-4 ovarian and 0.417 µM in the assay on HCT-15 colon. In addition, the TGI was found to be 8.39 µM with EKVX NSCLC; 43.4 µM in the assay on MDA-MB-231 breast; 4.35 µM in the assay with 786-0 renal; 4.89 µM in the assay with UO-31 renal; 18 µM with SK-OV-3 ovarian; 39 µM in the assay with SK-MEL-28 melanoma. In addition, the TGI in the assay on A498 renal is 80.4 µM; with OVCAR-5 ovarian, 43 µM; in the assay on OVCAR-4 ovarian, over 100 µM; in the assay with HCT-15 colon, 14.8 µM.
As to `COc1cc2c3cc1Oc1c(OC)c(OC)cc4c1C(Cc1ccc(cc1)Oc1cc(ccc1O)CC3N(C)CC2)N(C)CC4` (configuration not stated), the TGI with EKVX NSCLC was > 100 µM and 33.3 µM; in the assay with MDA-MB-231 breast, 24.5 µM; with 786-0 renal it was > 100 µM and 38.5 µM; with UO-31 renal, 21.5 µM and 20.6 µM; in the assay on SK-OV-3 ovarian it was 69.6 µM and 86.2 µM; with SK-MEL-28 melanoma, 25.9 µM and 26 µM. Further, the TGI in the assay with A498 renal was 32.9 µM; in the assay on OVCAR-5 ovarian, 67.4 µM and 29.6 µM; with OVCAR-4 ovarian, 29.6 µM and 31.3 µM; in the assay with HCT-15 colon, 23.2 µM and 14.3 µM. Further, the GI50 with 786-0 renal is > 100 µM and 10.2 µM; in the assay on SK-MEL-28 melanoma, 12.9 µM and 5.81 µM; with HCT-15 colon, 8.8 µM and 3.19 µM.
For the molecule `CCc1nc(N)nc(N)c1C#CC(C)c1cc(-c2ccnc(C)c2)c2oc(C)nc2c1` (configuration not stated), the GI50 in the assay on EKVX NSCLC is 0.451 µM; in the assay with MDA-MB-231 breast, 0.527 µM; in the assay with 786-0 renal it was under 0.01 µM; in the assay with UO-31 renal it was 0.0181 µM; in the assay on SK-OV-3 ovarian it was 0.113 µM; in the assay with SK-MEL-28 melanoma, 0.106 µM. Also, the GI50 with A498 renal is 0.117 µM; in the assay on OVCAR-5 ovarian, under 0.0103 µM; in the assay on OVCAR-4 ovarian, 4.54 µM; in the assay with HCT-15 colon, under 0.01 µM. Further, the TGI in the assay on EKVX NSCLC stood at 15 µM; with MDA-MB-231 breast, 16.9 µM; in the assay on 786-0 renal, 5.54 µM; with UO-31 renal, 11.5 µM; in the assay with SK-OV-3 ovarian, 8.53 µM; in the assay on SK-MEL-28 melanoma, 14.3 µM. Besides, the TGI in the assay on A498 renal is 4.89 µM; with OVCAR-5 ovarian, 13.6 µM; in the assay on OVCAR-4 ovarian, 26.4 µM; with HCT-15 colon, 11.3 µM.
For the molecule `CC(=O)n1c(-c2ccc(Cl)c(Cl)c2)cn(-c2ccc(Cl)cc2)c1=O`, the GI50 with EKVX NSCLC was 12.5 µM; in the assay with MDA-MB-231 breast, 17.6 µM; with 786-0 renal, 13.4 µM; in the assay on UO-31 renal, 24.7 µM; in the assay with SK-OV-3 ovarian, 19.2 µM; in the assay with SK-MEL-28 melanoma, over 100 µM. Besides, the GI50 is 20.9 µM with A498 renal, 55 µM with OVCAR-5 ovarian, 20 µM in the assay on OVCAR-4 ovarian and 63.7 µM with HCT-15 colon. The TGI is 34.6 µM in the assay with EKVX NSCLC; 62.6 µM in the assay on MDA-MB-231 breast; 32.9 µM in the assay on 786-0 renal; 51.4 µM in the assay with UO-31 renal; 44.1 µM in the assay on SK-OV-3 ovarian; over 100 µM with SK-MEL-28 melanoma. Also, the TGI in the assay with A498 renal was 47 µM; with OVCAR-5 ovarian it was over 100 µM; with OVCAR-4 ovarian, 57.7 µM; in the assay with HCT-15 colon, over 100 µM.
Regarding `Oc1ccc(Cn2c(-c3ccc(O)cc3)nc3ccccc32)cc1`, the TGI with EKVX NSCLC, in the assay on MDA-MB-231 breast, in the assay on 786-0 renal, with UO-31 renal, in the assay on SK-OV-3 ovarian and with SK-MEL-28 melanoma was over 100 µM each time. In addition, the TGI in the assay with A498 renal, with OVCAR-5 ovarian, in the assay with OVCAR-4 ovarian and in the assay with HCT-15 colon was over 100 µM throughout.
In the case of `O=C(NN1C(=O)CSC12CCC(c1ccccc1)CC2)c1[nH]c2ccc(F)cc2c1-c1ccccc1` (configuration not stated), the GI50 is 26.7 µM with EKVX NSCLC; 16.9 µM in the assay on MDA-MB-231 breast; 16.4 µM with 786-0 renal; 17 µM in the assay with UO-31 renal; 37.7 µM in the assay with SK-OV-3 ovarian; 18.1 µM in the assay with SK-MEL-28 melanoma. Also, the GI50 is 18.5 µM in the assay with A498 renal, 18.5 µM in the assay with OVCAR-5 ovarian, 15.8 µM in the assay on OVCAR-4 ovarian and 16.6 µM in the assay on HCT-15 colon. For the same molecule, the TGI in the assay with EKVX NSCLC was 62 µM; in the assay with MDA-MB-231 breast, 31.6 µM; in the assay on 786-0 renal, 33.8 µM; with UO-31 renal, 31 µM; with SK-OV-3 ovarian it was over 100 µM; in the assay with SK-MEL-28 melanoma it was 34.3 µM. Moreover, the TGI in the assay with A498 renal was 34.9 µM; in the assay with OVCAR-5 ovarian, 34.7 µM; with OVCAR-4 ovarian, 32.5 µM; in the assay with HCT-15 colon it was 32.7 µM.
As to `NCCSC(C[N+](=O)[O-])c1ccccc1Cl` (configuration not stated), the GI50 was 16.9 µM in the assay with EKVX NSCLC; 12 µM in the assay on MDA-MB-231 breast; 2.16 µM in the assay with 786-0 renal; 3.46 µM in the assay with UO-31 renal; 11.7 µM with SK-OV-3 ovarian; 2.08 µM with SK-MEL-28 melanoma. In addition, the GI50 was 2.3 µM in the assay on A498 renal, 4.66 µM with OVCAR-5 ovarian, 12.1 µM with OVCAR-4 ovarian and 2.21 µM in the assay on HCT-15 colon. Moreover, the TGI in the assay with EKVX NSCLC is 41.6 µM; in the assay with MDA-MB-231 breast, 25.8 µM; in the assay on 786-0 renal it was 4.33 µM; in the assay on UO-31 renal, 10.1 µM; with SK-OV-3 ovarian it was 24 µM; in the assay on SK-MEL-28 melanoma, 4.6 µM. Moreover, the TGI in the assay with A498 renal is 4.69 µM; with OVCAR-5 ovarian it was 10.4 µM; with OVCAR-4 ovarian, 30.1 µM; in the assay with HCT-15 colon, 5.97 µM.
